The nature of series [1]: DRUGMATRIX: Sodium/nucleoside co-transporter radioligand binding (ligand: nitrobenzylthioinosine). Conditions: Not Active = under 50% inhibition at 10 µM. In kind it is cell membranes, Cavia porcellus, Dunkin-Hartley, Cerebral cortex, Membrane.
Series [2] concerns the target T1, Alpha-1A adrenergic receptor (Rattus norvegicus, UniProt P43140).
T1 sequence (P43140 whole entry): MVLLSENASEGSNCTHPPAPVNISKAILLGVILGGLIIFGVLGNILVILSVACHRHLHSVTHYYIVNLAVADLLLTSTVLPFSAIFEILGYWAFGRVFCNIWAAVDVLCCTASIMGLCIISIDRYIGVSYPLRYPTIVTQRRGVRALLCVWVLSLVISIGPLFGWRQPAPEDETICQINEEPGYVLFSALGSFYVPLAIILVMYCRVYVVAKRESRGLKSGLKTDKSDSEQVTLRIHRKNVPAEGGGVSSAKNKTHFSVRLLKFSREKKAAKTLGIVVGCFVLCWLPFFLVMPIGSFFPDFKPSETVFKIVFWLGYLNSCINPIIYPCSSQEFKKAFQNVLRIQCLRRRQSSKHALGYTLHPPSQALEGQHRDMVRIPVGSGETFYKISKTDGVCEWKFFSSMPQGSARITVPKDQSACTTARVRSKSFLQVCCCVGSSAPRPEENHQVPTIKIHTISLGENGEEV
As to the kind of experiment: DRUGMATRIX: Alpha-1A adrenergic receptor radioligand binding (ligand: prazosin). Conditions: Not Active = under 50% inhibition at 10 µM. It counts as cell membranes, Wistar, Submaxillary gland, Membrane.

For series [3], the target named is Aldo-keto reductase family 1 member B1 (Rattus norvegicus, UniProt P07943). In kind it is tissue-based, Lens of camera-type eye.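 Further: inhibition of aldose reductase enzyme activity, measured with DL-glyceraldehyde as the substrate; in other assays of this panel Not Active means under 50% inhibition at 10 µM.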
Series [4] in a line: DRUGMATRIX: Sigma2 radioligand binding (ligand: [3H] Ifenprodil). It counts as cell membranes, Rattus norvegicus, Wistar, Brain, Membrane. Conditions: Not Active = under 50% inhibition at 10 µM.
The target in series [5] is T2, Caspase-1 (Homo sapiens, UniProt P29466).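 Further: Caspase-1 enzyme inhibition assay with a peptide substrate; in other assays of this panel Not Active means under 50% inhibition at 10 µM.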
T2 sequence (P29466 whole entry): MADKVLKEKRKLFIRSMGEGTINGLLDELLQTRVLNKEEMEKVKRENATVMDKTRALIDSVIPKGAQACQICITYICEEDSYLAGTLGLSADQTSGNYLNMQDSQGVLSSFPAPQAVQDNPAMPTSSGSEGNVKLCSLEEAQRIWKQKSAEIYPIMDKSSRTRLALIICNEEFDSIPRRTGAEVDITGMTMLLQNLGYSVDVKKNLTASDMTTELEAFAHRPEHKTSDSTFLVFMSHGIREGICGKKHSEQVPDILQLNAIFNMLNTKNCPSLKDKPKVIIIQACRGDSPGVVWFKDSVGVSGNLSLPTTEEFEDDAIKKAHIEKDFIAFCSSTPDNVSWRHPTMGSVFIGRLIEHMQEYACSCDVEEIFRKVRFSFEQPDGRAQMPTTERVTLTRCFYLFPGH
Also on record: species or system Escherichia coli.

For series [6], the target named is Mitogen-activated protein kinase 1 (Homo sapiens, UniProt P28482). Briefly: DRUGMATRIX: Protein Serine/Threonine Kinase, ERK2 enzyme inhibition (substrate: Myelin Basic Protein). Conditions: Not Active = under 50% inhibition at 10 µM. Further details: species or system Escherichia coli.
Sequence of Mitogen-activated protein kinase 1 (P28482 whole entry): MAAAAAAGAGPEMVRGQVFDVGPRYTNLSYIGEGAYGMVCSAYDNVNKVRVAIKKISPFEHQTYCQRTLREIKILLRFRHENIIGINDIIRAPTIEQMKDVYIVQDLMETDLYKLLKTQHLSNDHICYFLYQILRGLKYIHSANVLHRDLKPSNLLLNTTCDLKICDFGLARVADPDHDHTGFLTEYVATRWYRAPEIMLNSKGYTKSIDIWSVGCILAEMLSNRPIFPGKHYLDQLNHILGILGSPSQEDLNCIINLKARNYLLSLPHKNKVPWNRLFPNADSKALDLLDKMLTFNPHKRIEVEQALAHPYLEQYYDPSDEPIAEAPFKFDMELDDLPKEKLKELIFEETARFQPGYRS
The target of series [7] is Cytochrome P450 3A4 (Homo sapiens, UniProt P08684). Conditions: bti-tn-5b1-4. Further: in other assays of this panel Not Active means under 50% inhibition at 10 µM.
Sequence of Cytochrome P450 3A4 (P08684 whole entry): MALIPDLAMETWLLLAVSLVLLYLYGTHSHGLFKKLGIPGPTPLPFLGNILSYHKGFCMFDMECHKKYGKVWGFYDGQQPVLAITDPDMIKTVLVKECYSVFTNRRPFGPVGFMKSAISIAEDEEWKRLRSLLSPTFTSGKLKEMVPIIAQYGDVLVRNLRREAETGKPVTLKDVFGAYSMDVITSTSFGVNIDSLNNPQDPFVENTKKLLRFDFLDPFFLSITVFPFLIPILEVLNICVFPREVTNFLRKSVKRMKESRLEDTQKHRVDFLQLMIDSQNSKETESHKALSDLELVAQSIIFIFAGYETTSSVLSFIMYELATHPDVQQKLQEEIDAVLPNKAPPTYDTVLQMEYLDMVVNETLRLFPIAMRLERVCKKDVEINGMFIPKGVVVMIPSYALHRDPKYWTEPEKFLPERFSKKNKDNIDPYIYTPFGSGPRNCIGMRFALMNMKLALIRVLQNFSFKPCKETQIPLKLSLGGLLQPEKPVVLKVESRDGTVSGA

`CC(C(=O)O)c1ccc2oc(-c3ccc(Cl)cc3)nc2c1` (stereo unspecified) [BENOXAPROFEN]: the IC50 result in series [1], in series [2], in series [3], in series [4], in series [5] and in series [6] was “Not Active” each time. Further, the IC50 entry in series [7] is “Not Active”. For the same molecule, the inhibition constant Ki entry in series [1], in series [4] and in series [7] was “Not Active” in each case.

As for `COc1ccc2cc3[n+](cc2c1OC)CCc1cc2c(cc1-3)OCO2.[Cl-]` [BERBERINE CHLORIDE], the 50% inhibitory concentration (IC50) result is “Not Active” in series [1]; “Not Active” in series [2]; “Not Active” in series [3]; 0.095 µM in series [4] (read-out: IC50); “Not Active” in series [5]; “Not Active” in series [6]. In series [7], the IC50 result is listed as “Not Active”. Besides, the inhibition constant Ki entry is “Not Active” in series [1], 0.059 µM in series [4] (read-out: Ki) and “Not Active” in series [7].

As for `O=C(O)CCNC(=O)c1ccccc1` [BETAMIPRON], the IC50 result in series [1], in series [2], in series [3], in series [4], in series [5] and in series [6] was “Not Active” each time. Besides, the IC50 entry in series [7] was “Not Active”. Moreover, the inhibition constant Ki result in series [1], in series [4] and in series [7] was “Not Active” in each case.

For the molecule `CC(=O)Oc1ccc(C(c2ccc(OC(C)=O)cc2)c2ccccn2)cc1` [BISACODYL], the IC50 result in series [1], in series [2], in series [3], in series [4], in series [5] and in series [6] was “Not Active” each time. Also, in series [7], the half-inhibitory concentration (IC50) entry is “Not Active”. Moreover, the Ki entry in series [1], in series [4] and in series [7] was “Not Active” throughout.

For `Cc1cc2c(OCC(CNC(C)(C)C)OC(=O)c3ccccc3)cccc2[nH]1` (stereo unspecified) [BOPINDOLOL], the IC50 result in series [1], in series [2], in series [3], in series [4], in series [5] and in series [6] was “Not Active” in each case. Moreover, the IC50 entry in series [7] is reported as “Not Active”. For the same molecule, the Ki result in series [1], in series [4] and in series [7] was “Not Active” in each case.

`Brc1c(NC2=NCCN2)ccc2nccnc12` [BRIMONIDINE]: the IC50 result in series [1] is “Not Active”; in series [2] (read-out: IC50) it was 6.34 µM; in series [3], “Not Active”; in series [4] it was “Not Active”; in series [5], “Not Active”; in series [6], “Not Active”. Besides, the IC50 entry in series [7] was “Not Active”. Moreover, the inhibition constant (Ki) result in series [1] was “Not Active”; in series [2] (read-out: Ki) it was 2.57 µM; in series [4], “Not Active”; in series [7], “Not Active”.

Regarding `CN(C)[C@@H]1C(O)=C(C(N)=O)C(=O)[C@@]2(O)C(O)=C3C(=O)c4c(O)ccc(Cl)c4[C@@](C)(O)[C@H]3C[C@@H]12` [CHLORTETRACYCLINE], the IC50 result in series [1], in series [2], in series [3], in series [4], in series [5] and in series [6] was “Not Active” throughout. The IC50 result in series [7] is listed as “Not Active”. Besides, the Ki result in series [1], in series [4] and in series [7] was “Not Active” throughout.

With `CCC(=O)O[C@]1(C(=O)CCl)[C@@H](C)C[C@H]2[C@@H]3CCC4=CC(=O)C=C[C@]4(C)[C@@]3(F)[C@@H](O)C[C@@]21C` [CLOBETASOL PROPIONATE], the IC50 entry in series [1], in series [2], in series [3], in series [4], in series [5] and in series [6] was “Not Active” each time. Moreover, in series [7], the IC50 entry is reported as “Not Active”. In addition, the Ki entry in series [1], in series [4] and in series [7] was “Not Active” throughout.

Take `O=C1CN=C(c2ccccc2Cl)c2cc([N+](=O)[O-])ccc2N1` [CLONAZEPAM]: the IC50 result in series [1], in series [2], in series [3], in series [4], in series [5] and in series [6] was “Not Active” each time. The IC50 entry in series [7] is given as “Not Active”. Also, the Ki entry in series [1], in series [4] and in series [7] was “Not Active” each time.

For `Nc1ccn([C@@H]2O[C@H](CO)[C@@H](O)[C@@H]2O)c(=O)n1` [CYTARABINE], the IC50 entry in series [1], in series [2], in series [3], in series [4], in series [5] and in series [6] was “Not Active” throughout. In addition, the IC50 entry in series [7] is recorded as “Not Active”. Besides, the inhibition constant (Ki) result in series [1], in series [4] and in series [7] was “Not Active” throughout.

As for `C[C@@H]1C[C@H]2[C@@H]3CCC4=CC(=O)C=C[C@]4(C)[C@@]3(F)[C@@H](O)C[C@]2(C)[C@H]1C(=O)CO` [DESOXIMETASONE], the IC50 result in series [1], in series [2], in series [3], in series [4], in series [5] and in series [6] was “Not Active” each time. Besides, the IC50 result in series [7] was “Not Active”. Besides, the Ki entry in series [1], in series [4] and in series [7] was “Not Active” in each case.

As to `CN(C)CC[C@@H](c1ccc(Cl)cc1)c1ccccn1` [DEXCHLORPHENIRAMINE], the concentration for half-maximal inhibition (IC50) entry in series [1] is “Not Active”; in series [2] it was “Not Active”; in series [3], “Not Active”; in series [4] (read-out: IC50) it was 19.1 µM; in series [5], “Not Active”; in series [6], “Not Active”. The 50% inhibitory concentration (IC50) entry in series [7] was “Not Active”. Further, the Ki result is “Not Active” in series [1], 11.7 µM in series [4] (read-out: Ki) and “Not Active” in series [7].

Turning to `C[C@@H]1CC[C@@]2(OC1)O[C@H]1[C@@H](O)[C@H]3[C@@H]4CC[C@H]5C[C@@H](O[C@@H]6O[C@H](CO)[C@H](O[C@@H]7O[C@H](CO)C(O)[C@H](O[C@@H]8OC[C@@H](O)[C@H](O)[C@H]8O)[C@H]7O[C@@H]7O[C@H](CO)[C@H](O)[C@H](O[C@@H]8O[C@H](CO)[C@@H](O)[C@H](O)[C@H]8O)[C@H]7O)[C@H](O)[C@H]6O)[C@H](O)C[C@]5(C)[C@H]4CC[C@]3(C)[C@H]1[C@@H]2C` (stereo partly specified) [DIGITONIN], the IC50 entry in series [1], in series [2], in series [3], in series [4], in series [5] and in series [6] was “Not Active” each time. Further, the IC50 entry in series [7] is on record as “Not Active”. The Ki entry in series [1], in series [4] and in series [7] was “Not Active” in each case.

As for `OC(CCCN1CCCCC1)(c1ccccc1)c1ccccc1` [DIPHENIDOL], the half-maximal inhibitory concentration (IC50) entry in series [1], in series [2], in series [3], in series [4], in series [5] and in series [6] was “Not Active” each time. Moreover, in series [7], the half-maximal inhibitory concentration (IC50) result was “Not Active”. The Ki result in series [1], in series [4] and in series [7] was “Not Active” each time.

Regarding `C[C@H]1O[C@@H](n2cc(F)c(=O)[nH]c2=O)[C@H](O)[C@@H]1O` [DOXIFLURIDINE], the IC50 result in series [1], in series [2], in series [3], in series [4], in series [5] and in series [6] was “Not Active” in each case. Besides, the IC50 result in series [7] was “Not Active”. In addition, the Ki entry in series [1], in series [4] and in series [7] was “Not Active” each time.

As to `Cn1c(=O)c2c(ncn2CC(O)CO)n(C)c1=O` (stereo unspecified) [DYPHYLLINE], the concentration for half-maximal inhibition (IC50) entry in series [1], in series [2], in series [3], in series [4], in series [5] and in series [6] was “Not Active” throughout. Besides, the IC50 result in series [7] is “Not Active”. The inhibitory constant (Ki) entry in series [1], in series [4] and in series [7] was “Not Active” in each case.

The term IC50 denotes the concentration at which inhibition is half-maximal. What is called Ki is the equilibrium dissociation constant of an inhibitor or competing ligand from its target.
